{"source": "ChEMBL document CHEMBL6153089", "about": "“Design, Synthesis, and Biological Evaluation of Thieno[3,2-d]pyrimidine Derivatives as the First Bifunctional PI3Kδ Isoform Selective/Bromodomain and Extra-Terminal Inhibitors” (J Med Chem, 2025)", "key": {"[1]": {"biological_target": "PI3-kinase p110-delta/p85-alpha (Homo sapiens, UniProt O00329)", "test": "Inhibition of p110delta/p85alpha (unknown origin) incubated for 2 hrs in presence of ATP by ADP-kinaseGlo reagent based assay", "type": "protein-complex assay"}, "SU-DHL-6 [2]": {"system": "SU-DHL-6", "test": "Antitumor activity against human SU-DHL-6 cells xenografted in female BALB/c mouse model assessed as tumor growth inhibition at 20 mg/kg, po administered once daily via gavage for 15 days relative to control", "type": "functional", "settings": "SU-DHL-6, 360 h, time 15 day, read-out: TGI"}, "SU-DHL-6 [3]": {"system": "SU-DHL-6", "test": "Induction of apoptosis in human SU-DHL-6 cells assessed as viable cells at 0.5 uM incubated for 24 hrs by Annexin V-FITC/PI staining based flow cytometric analysis (reference value: 61.2 %)", "type": "functional", "settings": "read-out: Activity"}, "SUD4 [4]": {"system": "SUD4", "test": "Induction of apoptosis in human SU-DHL-4 cells assessed as decrease in Bcl-2 protein expression at 0.25 to 1 uM incubated for 12 hrs by Western blot analysis", "type": "functional, cell-based", "settings": "dose 0.25-1 µM"}, "SU-DHL-6 [5]": {"system": "SU-DHL-6", "test": "Induction of apoptosis in human SU-DHL-6 cells assessed as necrotic cells at 1 uM incubated for 24 hrs by Annexin V-FITC/PI staining based flow cytometric analysis (reference value: 0.246 %)", "type": "functional"}, "[6]": {"biological_target": "PI3-kinase p110-delta/p85-alpha (Homo sapiens) (UniProt P27986+O00329)", "test": "Inhibition of human p110delta/p85alpha at 1 uM relative to control", "type": "protein-complex assay"}, "SUD4 [7]": {"system": "SUD4", "test": "Antiproliferative activity against human SU-DHL-4 cells assessed as inhibition of cell proliferation by measuring reduction in cell count incubated for 6 days by photographic analysis", "type": "functional, cell-based", "settings": "dose 25-100 nM, time 6.0 day"}, "SUD4 [8]": {"system": "SUD4", "test": "Cell cycle arrest in human SU-DHL-4 cells assessed as accumulation of cells at S phase incubated for 12 hrs by PI staining based flow cytometric analysis", "type": "functional", "settings": "dose 0.25-1 µM"}, "[9]": {"test": "Toxicity in female BALB/c mouse model xenografted with human SU-DHL-6 cells assessed as effect on body weight at 20 mg/kg, po administered once daily via gavage for 15 days", "type": "organism-based", "settings": "in vivo, 360 h, time 15 day"}, "SU-DHL-6 [10]": {"system": "SU-DHL-6", "test": "Antiproliferative activity against human SU-DHL-6 cells assessed as inhibition of cell proliferation by measuring reduction in cell count incubated for 6 days by photographic analysis", "type": "functional, cell-based", "settings": "dose 12.5-50 nM, time 6.0 day"}, "[11]": {"test": "Toxicity in female BALB/c mouse model xenografted with human SU-DHL-6 cells assessed as effect on liver histopathology at 20 mg/kg, po administered once daily via gavage for 15 days by H and E staining based analysis", "type": "organism-based", "settings": "in vivo, 360 h, time 15 day"}, "[12]": {"biological_target": "Phosphatidylinositol 4,5-bisphosphate 3-kinase catalytic subunit gamma isoform (Homo sapiens, UniProt P48736)", "sequence (P48736 whole entry, looked up, canonical isoform)": "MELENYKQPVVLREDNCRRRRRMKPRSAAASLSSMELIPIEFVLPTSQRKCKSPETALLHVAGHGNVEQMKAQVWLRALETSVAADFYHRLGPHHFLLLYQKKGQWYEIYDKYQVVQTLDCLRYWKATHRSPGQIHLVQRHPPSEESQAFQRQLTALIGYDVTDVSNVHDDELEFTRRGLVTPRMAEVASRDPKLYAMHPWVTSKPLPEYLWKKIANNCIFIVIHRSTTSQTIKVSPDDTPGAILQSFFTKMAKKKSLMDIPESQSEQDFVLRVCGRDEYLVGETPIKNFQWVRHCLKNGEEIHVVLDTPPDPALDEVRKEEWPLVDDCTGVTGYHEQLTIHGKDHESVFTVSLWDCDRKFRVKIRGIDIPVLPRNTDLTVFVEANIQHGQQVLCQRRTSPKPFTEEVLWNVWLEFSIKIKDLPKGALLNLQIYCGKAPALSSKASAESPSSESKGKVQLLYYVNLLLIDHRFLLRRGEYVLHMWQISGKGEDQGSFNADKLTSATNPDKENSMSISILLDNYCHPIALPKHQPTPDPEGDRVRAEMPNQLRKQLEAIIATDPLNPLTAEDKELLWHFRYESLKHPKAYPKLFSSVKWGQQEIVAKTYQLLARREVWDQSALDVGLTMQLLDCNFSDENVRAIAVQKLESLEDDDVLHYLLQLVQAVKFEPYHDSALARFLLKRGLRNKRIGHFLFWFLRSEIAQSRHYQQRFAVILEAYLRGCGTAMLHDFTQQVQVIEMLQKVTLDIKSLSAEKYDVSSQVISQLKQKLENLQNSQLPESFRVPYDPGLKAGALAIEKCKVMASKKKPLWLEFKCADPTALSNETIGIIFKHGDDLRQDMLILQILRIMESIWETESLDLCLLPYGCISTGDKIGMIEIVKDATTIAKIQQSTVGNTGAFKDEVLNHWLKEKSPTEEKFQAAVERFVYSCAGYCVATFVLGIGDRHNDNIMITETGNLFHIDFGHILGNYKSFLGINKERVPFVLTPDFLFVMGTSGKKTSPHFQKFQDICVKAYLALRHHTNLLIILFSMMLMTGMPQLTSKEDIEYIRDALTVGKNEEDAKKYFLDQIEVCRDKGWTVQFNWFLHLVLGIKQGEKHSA", "test": "Inhibition of human PI3Kgamma at 1 uM relative to control"}, "[13]": {"biological_target": "Phosphatidylinositol 4-phosphate 5-kinase type-1 gamma (Homo sapiens) (UniProt O60331)", "sequence (O60331 whole entry)": "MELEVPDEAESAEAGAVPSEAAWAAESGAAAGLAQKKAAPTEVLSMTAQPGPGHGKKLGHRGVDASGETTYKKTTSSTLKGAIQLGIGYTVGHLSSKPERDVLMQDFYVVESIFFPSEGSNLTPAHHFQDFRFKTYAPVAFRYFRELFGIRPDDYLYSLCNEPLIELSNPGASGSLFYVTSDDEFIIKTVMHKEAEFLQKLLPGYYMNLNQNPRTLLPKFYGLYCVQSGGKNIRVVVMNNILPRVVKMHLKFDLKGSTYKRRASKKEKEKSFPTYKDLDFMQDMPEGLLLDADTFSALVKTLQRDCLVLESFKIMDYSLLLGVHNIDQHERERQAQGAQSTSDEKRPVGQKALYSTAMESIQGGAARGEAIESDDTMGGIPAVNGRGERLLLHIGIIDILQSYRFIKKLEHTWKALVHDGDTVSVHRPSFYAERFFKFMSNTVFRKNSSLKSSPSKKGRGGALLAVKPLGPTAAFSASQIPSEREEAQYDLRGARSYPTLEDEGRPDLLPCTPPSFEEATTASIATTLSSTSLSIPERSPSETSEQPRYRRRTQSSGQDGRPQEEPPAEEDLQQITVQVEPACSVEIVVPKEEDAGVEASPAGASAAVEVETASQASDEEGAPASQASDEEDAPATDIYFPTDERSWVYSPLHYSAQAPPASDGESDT", "test": "Inhibition of human PIP5K1gamma at 1 uM relative to control"}, "[14]": {"test": "Toxicity in female BALB/c mouse model xenografted with human SU-DHL-6 cells assessed as effect on heart histopathology at 20 mg/kg, po administered once daily via gavage for 15 days by H and E staining based analysis", "type": "organism-based", "settings": "in vivo, 360 h, time 15 day"}, "[15]": {"biological_target": "PI3-kinase p110-alpha/p85-alpha (Homo sapiens) (UniProt P27986+P42336)", "test": "Inhibition of human p110alpha/p85alpha at 1 uM relative to control", "type": "protein-complex assay"}, "SU-DHL-6 [16]": {"system": "SU-DHL-6", "test": "Antiproliferative against activity human SU-DHL-6 cells assessed as inhibition of cell growth incubated for 72 hrs by Celltiter-luminescence analysis", "type": "functional, cell-based", "settings": "SU-DHL-6, 72 h"}, "[17]": {"biological_target": "Bromodomain testis-specific protein (Homo sapiens, UniProt Q58F21)", "test": "Inhibition of His-tagged BRDT-BD1 (unknown origin) incubated for 30 mins in presence of ATP by Alphascreen assay"}, "[18]": {"biological_target": "Glycogen synthase kinase-3 beta (Homo sapiens) (UniProt P49841)", "sequence (P49841 whole entry, looked up)": "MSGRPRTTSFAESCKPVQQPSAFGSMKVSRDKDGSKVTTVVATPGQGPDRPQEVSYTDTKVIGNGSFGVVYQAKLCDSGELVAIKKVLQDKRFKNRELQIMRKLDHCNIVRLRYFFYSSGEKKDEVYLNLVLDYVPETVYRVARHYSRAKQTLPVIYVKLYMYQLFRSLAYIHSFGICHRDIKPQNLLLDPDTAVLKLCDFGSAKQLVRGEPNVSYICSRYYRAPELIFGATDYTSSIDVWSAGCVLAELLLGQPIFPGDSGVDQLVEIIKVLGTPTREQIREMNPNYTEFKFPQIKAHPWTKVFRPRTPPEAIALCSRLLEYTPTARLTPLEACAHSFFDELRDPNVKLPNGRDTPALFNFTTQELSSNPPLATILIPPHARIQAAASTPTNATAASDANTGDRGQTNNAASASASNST", "test": "Inhibition of GSK-3beta phosphorylation in human SU-DHL-6 cells incubated for 12 hrs by Western blot analysis", "type": "cell-based", "settings": "dose 0.25-1 µM"}, "SU-DHL-6 [19]": {"system": "SU-DHL-6", "test": "Induction of apoptosis in human SU-DHL-6 cells assessed as early apoptotic cells at 1 uM incubated for 24 hrs by Annexin V-FITC/PI staining based flow cytometric analysis (reference value: 32.1 %)", "type": "functional"}, "SUD4 [20]": {"system": "SUD4", "test": "Induction of apoptosis in human SU-DHL-4 cells assessed as viable cells at 1 uM incubated for 24 hrs by Annexin V-FITC/PI staining based flow cytometric analysis (reference value: 65.2 %)", "type": "functional", "settings": "read-out: Activity"}, "[21]": {"test": "Half-life in female BALB/c mouse at 1 mg/kg, iv measured after 12 hrs by LC-MS/MS analysis", "type": "ADME, organism-based", "settings": "in vivo"}, "SU-DHL-6 [22]": {"system": "SU-DHL-6", "test": "Antitumor activity against human SU-DHL-6 cells xenografted in female BALB/c mouse model assessed as reduction in phosphorylated AKT level in tumor at 20 mg/kg, po administered once daily via gavage for 15 days by Western blot analysis", "type": "functional, organism-based", "settings": "time 15.0 day"}, "SUD4 [23]": {"system": "SUD4", "test": "Induction of apoptosis in human SU-DHL-4 cells assessed as late apoptotic cells at 0.25 uM incubated for 24 hrs by Annexin V-FITC/PI staining based flow cytometric analysis (reference value: 6.74 %)", "type": "functional"}, "SU-DHL-6 [24]": {"system": "SU-DHL-6", "test": "Downregulation of c-Myc expression in human SU-DHL-6 cells at 0.25 to 1 uM incubated for 12 hrs by Western blot analysis", "type": "functional, cell-based", "settings": "dose 0.25-1 µM"}, "SUD4 [25]": {"system": "SUD4", "test": "Induction of apoptosis in human SU-DHL-4 cells assessed as late apoptotic cells at 0.5 uM incubated for 24 hrs by Annexin V-FITC/PI staining based flow cytometric analysis (reference value: 6.74 %)", "type": "functional"}, "[26]": {"test": "Oral bioavailability in female BALB/c mouse at 20 mg/kg measured after 24 hrs by LC-MS/MS analysis", "type": "ADME, organism-based", "settings": "in vivo"}, "SUD4 [27]": {"system": "SUD4", "test": "Induction of apoptosis in human SU-DHL-4 cells assessed as viable cells at 0.5 uM incubated for 24 hrs by Annexin V-FITC/PI staining based flow cytometric analysis (reference value: 65.2 %)", "type": "functional", "settings": "read-out: Activity"}, "[28]": {"biological_target": "Bromodomain-containing protein 3 (Homo sapiens, UniProt Q15059)", "sequence (Q15059 whole entry)": "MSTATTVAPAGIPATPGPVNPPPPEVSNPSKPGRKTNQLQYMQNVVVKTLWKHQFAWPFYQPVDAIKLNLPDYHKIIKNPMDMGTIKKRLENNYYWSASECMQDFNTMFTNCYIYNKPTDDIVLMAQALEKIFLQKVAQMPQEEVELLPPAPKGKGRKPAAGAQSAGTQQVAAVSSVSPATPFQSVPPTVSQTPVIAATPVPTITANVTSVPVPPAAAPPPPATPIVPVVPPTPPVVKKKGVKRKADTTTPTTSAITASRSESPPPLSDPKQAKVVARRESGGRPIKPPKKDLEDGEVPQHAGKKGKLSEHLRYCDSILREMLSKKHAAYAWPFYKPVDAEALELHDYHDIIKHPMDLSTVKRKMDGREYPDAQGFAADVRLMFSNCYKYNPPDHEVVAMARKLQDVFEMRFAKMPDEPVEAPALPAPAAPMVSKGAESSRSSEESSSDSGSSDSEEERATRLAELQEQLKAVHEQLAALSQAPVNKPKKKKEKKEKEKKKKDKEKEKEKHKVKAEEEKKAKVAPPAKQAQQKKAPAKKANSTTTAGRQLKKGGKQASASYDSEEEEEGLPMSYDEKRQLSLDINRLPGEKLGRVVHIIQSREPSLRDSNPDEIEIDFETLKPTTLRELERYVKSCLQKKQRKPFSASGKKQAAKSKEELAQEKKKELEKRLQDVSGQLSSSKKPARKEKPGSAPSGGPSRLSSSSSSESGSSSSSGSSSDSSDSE", "test": "Inhibition of His-tagged BRD3-BD1 (unknown origin) incubated for 30 mins in presence of ATP by Alphascreen assay"}, "[29]": {"biological_target": "Phosphatidylinositol 5-phosphate 4-kinase type-2 alpha (Homo sapiens) (UniProt P48426)", "sequence (P48426 whole entry)": "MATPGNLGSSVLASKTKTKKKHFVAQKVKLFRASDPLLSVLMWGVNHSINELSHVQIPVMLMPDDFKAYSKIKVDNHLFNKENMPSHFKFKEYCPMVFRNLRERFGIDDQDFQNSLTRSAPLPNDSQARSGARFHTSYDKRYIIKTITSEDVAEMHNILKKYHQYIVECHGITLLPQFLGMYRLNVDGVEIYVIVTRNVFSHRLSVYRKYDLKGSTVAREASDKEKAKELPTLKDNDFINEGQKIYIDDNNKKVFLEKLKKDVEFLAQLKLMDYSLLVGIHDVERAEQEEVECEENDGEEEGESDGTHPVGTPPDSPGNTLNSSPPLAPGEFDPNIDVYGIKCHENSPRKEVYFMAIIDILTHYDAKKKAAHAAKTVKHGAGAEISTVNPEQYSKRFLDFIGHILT", "test": "Inhibition of human PIP4K2alpha at 1 uM relative to control"}, "SU-DHL-6 [30]": {"system": "SU-DHL-6", "test": "Induction of apoptosis in human SU-DHL-6 cells assessed as early apoptotic cells at 0.5 uM incubated for 24 hrs by Annexin V-FITC/PI staining based flow cytometric analysis (reference value: 32.1 %)", "type": "functional"}, "SUD4 [31]": {"system": "SUD4", "test": "Induction of apoptosis in human SU-DHL-4 cells assessed as viable cells at 0.25 uM incubated for 24 hrs by Annexin V-FITC/PI staining based flow cytometric analysis (reference value: 65.2 %)", "type": "functional", "settings": "read-out: Activity"}, "Homo sapiens": {"organism": "Homo sapiens", "test": "Inhibition of human p110alpha/p65alpha at 1 uM relative to control"}, "[32]": {"biological_target": "Glycogen synthase kinase-3 beta (Homo sapiens) (UniProt P49841)", "test": "Inhibition of GSK-3beta phosphorylation in human SU-DHL-4 cells at 0.25 to 1 uM incubated for 12 hrs by Western blot analysis", "type": "cell-based", "settings": "dose 0.25-1 µM"}, "[33]": {"test": "Cmax in female BALB/c mouse at 20 mg/kg, po measured after 24 hrs by LC-MS/MS analysis", "type": "ADME, organism-based", "settings": "in vivo"}, "SU-DHL-6 [34]": {"system": "SU-DHL-6", "test": "Inhibition of AKT phosphorylation in human SU-DHL-6 cells incubated for 12 hrs by Western blot analysis", "type": "cell-based", "settings": "dose 0.25-1 µM"}}, "note": "Calls of active or inactive are those of the source. The rule behind the calls is not given here."}
{"smiles": "Cn1cc(-c2nc(N3CCOCC3)c3sc(CN4CCC(C(C)(C)O)CC4)cc3n2)c2cc[nH]c2c1=O", "values": [{"measurement": "IC50", "setting": "[1]", "result": 112, "unit": "nM"}, {"measurement": "inhibition in vivo at 20 mg/kg", "setting": "SU-DHL-6 [2]", "result": 70.8, "unit": "%"}, {"measurement": "viability at 0.5 µM", "setting": "SU-DHL-6 [3]", "result": 49.7, "unit": "%"}, {"measurement": "Activity", "setting": "SUD4 [4]", "result": "Active; Modest Effect Observed"}, {"measurement": "Activity", "setting": "SU-DHL-6 [5]", "result": 0.58, "unit": "%"}, {"measurement": "inhibition", "setting": "[6]", "result": 94.1, "unit": "%"}, {"measurement": "Activity", "setting": "SUD4 [7]", "result": "Dose-dependent-effect; Stronger Effect Observed At Lower Concentration Than Those Of Sf2523"}, {"measurement": "Activity", "setting": "SUD4 [8]", "result": "Dose-dependent-effect"}, {"measurement": "Activity", "setting": "[9]", "result": "Non-toxic"}, {"measurement": "Activity", "setting": "SU-DHL-6 [10]", "result": "Dose-dependent-effect; Stronger Effect Observed At Lower Concentration Than Those Of Sf2523"}, {"measurement": "Activity", "setting": "[11]", "result": "Non-toxic"}, {"measurement": "inhibition", "setting": "[12]", "result": 57.2, "unit": "%"}, {"measurement": "inhibition", "setting": "[13]", "result": 75.7, "unit": "%"}, {"measurement": "Activity", "setting": "[14]", "result": "Non-toxic"}, {"measurement": "inhibition", "setting": "[15]", "result": 41, "unit": "%"}, {"measurement": "IC50", "setting": "SU-DHL-6 [16]", "result": 61, "unit": "nM"}, {"measurement": "IC50", "setting": "[17]", "result": 46, "unit": "nM"}, {"measurement": "inhibition", "setting": "[18]", "result": "Dose-dependent-effect"}, {"measurement": "Activity", "setting": "SU-DHL-6 [19]", "result": 48.9, "unit": "%"}, {"measurement": "viability at 1 µM", "setting": "SUD4 [20]", "result": 28.1, "unit": "%"}, {"measurement": "half-life", "setting": "[21]", "result": 120, "unit": "min"}, {"measurement": "Activity", "setting": "SU-DHL-6 [22]", "result": "Active"}, {"measurement": "Activity", "setting": "SUD4 [23]", "result": 12.6, "unit": "%"}, {"measurement": "Activity", "setting": "SU-DHL-6 [24]", "result": "Active"}, {"measurement": "Activity", "setting": "SUD4 [25]", "result": 17.3, "unit": "%"}, {"measurement": "bioavailability", "setting": "[26]", "result": 74.8, "unit": "%"}, {"measurement": "viability at 0.5 µM", "setting": "SUD4 [27]", "result": 49.1, "unit": "%"}, {"measurement": "IC50", "setting": "[28]", "result": 32, "unit": "nM"}, {"measurement": "inhibition", "setting": "[29]", "result": 0.3, "unit": "%"}, {"measurement": "Activity", "setting": "SU-DHL-6 [30]", "result": 41.8, "unit": "%"}, {"measurement": "viability at 0.25 µM", "setting": "SUD4 [31]", "result": 53.7, "unit": "%"}, {"measurement": "inhibition", "setting": "Homo sapiens", "result": 41.9, "unit": "%"}, {"measurement": "inhibition", "setting": "[32]", "result": "Active"}, {"measurement": "Cmax", "setting": "[33]", "result": 228, "unit": "ng/mL"}, {"measurement": "inhibition", "setting": "SU-DHL-6 [34]", "result": "Dose-dependent-effect"}]}
